This is an account of results in publication PMC12040169 (PLOS Biology, 2025).

A short description of the first data set: in vitro. To be noted: human, hela cells, % viability.
Broadly, the viability is a read-out of living cells in per cent, often relative to untreated cells. Consider `NS(=O)(=O)c1ccc(C(=O)N2CCC3(CCN(C(=O)c4cc(F)c(F)cc4F)C3)C2)cc1` (stereo not shown) [CBK131385], for which the viability at 28.5 h, 10 µM was 104%. On to `COCCSc1nc2c(c(=O)[nH]c(=O)n2C)n1CCCc1ccccc1` [CBK140504], for which the viability at 28.5 h, 10 µM was 90.9%.

On to `CN(C(=O)CCn1c(=O)oc2cc(Cl)ccc21)C1(C(N)=O)CCCC1` [CBK305493], for which the viability at 28.5 h, 10 µM is 89.1%.

Turning to `Cc1nc(-c2ccc(S(=O)(=O)N3CCC(Cc4ccccc4)CC3)cc2)cs1` [CBK265494], the viability at 28.5 h, 10 µM is 108%. With `CC1CCc2sc(C(=O)N3CCC4(CC3)NC(=O)NC4=O)cc2C1` (stereo not shown) [CBK304992], the viability at 28.5 h, 10 µM worked out at 89.1%. Turning to `COc1ccc2[nH]cc(C(C(=O)O)N3CCCCC3)c2c1` (stereo not shown) [CBK286676], the viability at 28.5 h, 10 µM worked out at 85.3%. On the same count and under the same terms, the result for `C=CCn1c(Cc2csc(NC(=O)c3cc(C)cc(C)c3)n2)n[nH]c1=S` [CBK295358] reads 77%. On the same count and under the same terms, the result for `CN1CCN(NC(=O)c2cc(C(=O)c3ccc(Cl)cc3Cl)c[nH]2)CC1` [CBK107420] reads 91.4%; that for `CC1=CC(C)(C)N(CC(=O)c2ccc([N+](=O)[O-])cc2)c2c(C)cccc21` [CBK261652], 103%; that for `S=C(NCCCN1CCOCC1)Nc1ccccc1Cl` [CBK264599], 100%.

For `Cc1nn2c(CN(C(=O)c3ccccc3)c3ccccc3)nnc2c2ccccc12` [CBK268084], the viability at 28.5 h, 10 µM amounted to 87.7%. Regarding `COc1ccc(-c2n[nH]c(=S)n2CC(=O)Nc2ccc(NC(=O)CC(C)C)cc2)cc1` [CBK295342], the viability at 28.5 h, 10 µM was found to be 100%. Take `O=c1[nH]c2ncc(-c3cccc4ncccc34)nc2n1Cc1ccccc1` [CBK064245]: the viability at 28.5 h, 10 µM was 89.4%. In the case of `Cc1cc(C(=O)Nc2nnc(Cc3ccccc3)s2)c2ccccc2n1` [CBK295607], the viability at 28.5 h, 10 µM amounted to 93.3%. In the case of `CCC(=O)N1CCCC1c1nc(C)c2c(n1)N(Cc1ccc(F)cc1)CCC2` (stereo not shown) [CBK286247], the viability at 28.5 h, 10 µM turned out to be 104%. As to `CCOC(=O)c1[nH]c2ccccc2c1NC(=O)c1c(F)ccc(Cl)c1F` [CBK160141], the viability at 28.5 h, 10 µM came out at 120%. On to `COc1ccc([C@H]2CN(C(=O)c3ccccc3)[C@@H]3CCN(Cc4ccsc4)C[C@H]23)cc1` [CBK285585], for which the viability at 28.5 h, 10 µM was 103%. For `COC(=O)c1c(NC(=O)CC2Nc3ccccc3NC2=O)sc2c1CCC(C(C)(C)C)C2` (stereo not shown) [CBK265614], the viability at 28.5 h, 10 µM amounted to 98.1%. For the compound `O=C1NC(=O)C(c2ccccc2)(c2ccccc2)N1` [CBK005292], the viability at 28.5 h, 10 µM was determined as 108%.

Regarding `Oc1cc(Cl)c(-c2ccccc2)nn1` [CBK022028], the viability at 28.5 h, 10 µM was 88.4%. Turning to `CN(C)C(=O)c1cc(Br)cnc1NCCCn1ccnc1` [CBK076378], the viability at 28.5 h, 10 µM worked out at 98%. Regarding `Cc1cc(CN(C)Cc2cnn(-c3ccc(F)cc3)c2)n[nH]1` [CBK281706], the viability at 28.5 h, 10 µM was 97.1%. `CCC(Sc1nc(N)cc(=O)[nH]1)C(=O)Nc1ccc2ccccc2c1` (stereo not shown) [CBK265761]: the viability at 28.5 h, 10 µM amounted to 98.9%. Consider `COc1cc(CN2CCN(C(=O)c3cccc(Cl)c3)CC2)cc(OC)c1OC` [CBK074530], for which the viability at 28.5 h, 10 µM came out at 97.1%. As to `Cc1cc(CSc2cccc(F)c2)no1` [CBK002916], the viability at 28.5 h, 10 µM turned out to be 97%. For the compound `CCC(=O)NC(Nc1cc(Cl)ccc1OC)(C(F)(F)F)C(F)(F)F` [CBK261342], the viability at 28.5 h, 10 µM came out at 96.3%. As to `COCCN1C(=O)CO[C@H]2CN(C(=O)Nc3ccc(F)cc3)C[C@H]21` [CBK289705], the viability at 28.5 h, 10 µM came out at 85.3%. Same read-out and setting: the result for `CCc1nn(CC(=O)N2CCCC2)c(=O)c2cc3oc(C)cc3n12` [CBK283584] reads 110%; that for `COC(=O)Nc1sc2c(c1C(=O)N1CCOCC1)CCC(C)C2` (stereo not shown) [CBK307413], 95%; that for `CN(CC(=O)O)C(=O)c1ccc(S(=O)(=O)N2CCCCC2)cc1` [CBK265715], 112%. Take `COc1ccc(CCN2C(=O)CC(C(=O)O)S/C2=N\c2ccc(Cl)cc2)cc1OC` (stereo not shown) [CBK263286]: the viability at 28.5 h, 10 µM was found to be 93.9%. In the case of `Cc1nn(Cc2cccc(C(=O)O)c2)c(C)c1Br` [CBK286950], the viability at 28.5 h, 10 µM came to 100%. As to `Nc1ncc(-c2ccncc2)nc1NCC1CCOCC1` [CBK063816], the viability at 28.5 h, 10 µM is 105%.

With `CCSc1ccnc2c1c(=O)n(C)c(=O)n2C` [CBK287749], the viability at 28.5 h, 10 µM was found to be 98.9%.

For the compound `O=C1C=CC2=C3Oc4c(ccc5cc(O)ccc45)C(c4ccccc4C(=O)O)C3C=CC2=C1` (stereo not shown) [CBK278169N], the viability at 28.5 h, 10 µM was determined as 82.8%.

Turning to `c1nc(OCCN2CCOCC2)cc(N2CCCNCC2)n1` [CBK085466], the viability at 28.5 h, 10 µM came out at 86.2%.

Take `Fc1ccc(Oc2nccnc2N2CCN(Cc3ccc(Cl)cc3)CC2)cc1` [CBK083010T]: the viability at 28.5 h, 10 µM was found to be 80.4%. As to `N#CCCCN1CCC(Oc2nccnc2OC2CCCCC2)CC1` [CBK082871T], the viability at 28.5 h, 10 µM was 101%. For `COc1cc(CN2CCN(C(=O)c3cccnc3)CC2)cc(OC)c1O` [CBK265210G], the viability at 28.5 h, 10 µM amounted to 85.2%. In the case of `Cn1ncc2ccc(-c3nnn[nH]3)cc21` [CBK304776], the viability at 28.5 h, 10 µM was 93%. `O=C1CN(Cc2nc(-c3cccc(C(F)(F)F)c3)no2)CCN1` [CBK306038]: the viability at 28.5 h, 10 µM was 92.9%.

For `CCN(C(=O)CC1SC(NCC2CCCCC2)=NC1=O)c1ccccc1` (stereo not shown) [CBK067373], the viability at 28.5 h, 10 µM is 89.3%.

Regarding `Brc1ccc(/C=N\c2ccc3c(c2)ncn3CCn2cnc3cc(/N=C/c4ccc(Br)cc4)ccc32)cc1` [CBK262285], the viability at 28.5 h, 10 µM turned out to be 83.9%. Still for that read-out and setting: the result for `Brc1csc(CNc2ccc3cn[nH]c3c2)c1` [CBK021216] reads 75.1%; that for `O=C(CC1CCCO1)NS(=O)(=O)c1cccc(-c2nnco2)c1` (stereo not shown) [CBK305267], 94.3%.

`CCCCCN1CCn2nc(CNc3cnccn3)cc2C1` [CBK306713]: the viability at 28.5 h, 10 µM turned out to be 77.2%. Same read-out and setting: the result for `Cc1cc(/C=C(/C#N)c2nc3ccccc3[nH]2)c(C)n1-c1ccc(S(N)(=O)=O)cc1` [CBK264769] reads 77.8%. Consider `Nc1ccccc1Sc1nc2ccccc2nc1C(F)(F)F` [CBK093776], for which the viability at 28.5 h, 10 µM was determined as 96.1%.

Regarding `Cc1cc(C(=O)N2CCC3(C/C=C/CCOc4ccccc4C(=O)NCCCNC3=O)CC2)no1` [CBK292155], the viability at 28.5 h, 10 µM was 92.6%. With `CS(=O)(=O)N(CC(=O)Nc1ccccc1C(F)(F)F)Cc1ccc(Cl)cc1` [CBK267854], the viability at 28.5 h, 10 µM came out at 108%.

Take `CC(Nc1nc(N2CCN(CCO)CC2)nc2ccccc12)c1ccccc1` (stereo not shown) [CBK269427]: the viability at 28.5 h, 10 µM worked out at 106%. For `Oc1ccc(Br)cc1/C=N/c1ccc(-c2cc(-c3ccc(/N=C/c4cc(Br)ccc4O)cc3)ncn2)cc1` [CBK261630], the viability at 28.5 h, 10 µM is 115%. Regarding `COc1ccc(Cl)cc1NC(=O)CN(c1ccccc1)S(=O)(=O)c1ccc(Cl)cc1` [CBK265261], the viability at 28.5 h, 10 µM worked out at 105%. In the case of `c1ccc(C(NCc2cnc(-c3cnccn3)s2)C2CCC2)cc1` (stereo not shown) [CBK304016], the viability at 28.5 h, 10 µM came out at 106%. In the case of `CCCC(=O)N1CCC(c2nc(Cc3cccs3)no2)C1` (stereo not shown) [CBK283034], the viability at 28.5 h, 10 µM was found to be 88%.

With `CS(=O)(=O)N[C@H]1CCN2C(=O)c3cc(-c4ccc(Cl)cc4)ccc3NC(=O)[C@@H]2C1` [CBK289565], the viability at 28.5 h, 10 µM was determined as 95.3%. The same measure, in the same setting: in the case of `N#CCCN(C(=O)NCc1cccc2ccccc12)C1CCCCC1` [CBK156353] it was 89%; in that of `Cc1cc(C(=O)N(CCC#N)Cc2cccs2)no1` [CBK057316], 112%. As for `COc1ccc(NC(=O)CSc2nc(O)cc(-c3ccccc3)n2)cc1OC` [CBK263657], the viability at 28.5 h, 10 µM is 96.1%. `CCOC(=O)CC(=O)CSc1nc(N)c2c3c(sc2n1)CCCC3` [CBK264942]: the viability at 28.5 h, 10 µM turned out to be 120%.

Take `O=C(NCc1c(F)cccc1F)c1ccc2nc[nH]c2c1` [CBK153315]: the viability at 28.5 h, 10 µM is 83%. Still for that read-out and setting: in the case of `Nn1c(=O)c2ccccc2n2c(SCC(=O)N(c3ccccc3)c3ccccc3)nnc12` [CBK266621] it was 99.3%. Same read-out and setting: the result for `CC(C)CCNC(=O)N1CCC(C(=O)O)CC1` [CBK156075] reads 95.3%. For `CCC1C(=O)NCCN1C(=O)c1ccc2c(c1)ncn2C` (stereo not shown) [CBK281709], the viability at 28.5 h, 10 µM turned out to be 82.4%.

With `Cc1ccc(C2CC(=O)Nc3nc(-c4ccccc4)[nH]c(=O)c32)c(C)c1` (stereo not shown) [CBK287998], the viability at 28.5 h, 10 µM worked out at 108%.

Turning to `CN(C)Cc1ccccc1-n1ncc(-c2ccc(Br)cc2F)n1` [CBK112924], the viability at 28.5 h, 10 µM was 90.9%. `CC1(C)CC(=O)C=C(C(=O)NCc2ccc(OC3CCNCC3)cc2)O1` [CBK038948T]: the viability at 28.5 h, 10 µM is 96.1%. Same read-out and setting: in the case of `CC1=C(C(=O)OCC(C)C)C(c2ccc(C)cc2)N2C(=O)C(C)SC2=N1` (stereo not shown) [CBK091646] it was 92.8%. As to `Cn1ccnc1CN1CCCC(CCC(=O)Nc2ccccc2F)C1` (stereo not shown) [CBK307462], the viability at 28.5 h, 10 µM was found to be 92.1%.

Take `COc1ccc(C(=O)N2CCC3(CCCN(CC(=O)Nc4ncccn4)C3)C2)cc1OC` (stereo not shown) [CBK132860]: the viability at 28.5 h, 10 µM amounted to 105%.

Take `Nc1cccc(-c2ccc(OC3CCNCC3)cc2)c1` [CBK126959T]: the viability at 28.5 h, 10 µM was 83.9%. In the case of `CCOc1ccccc1NC(=O)Nc1ncccc1C` [CBK267140], the viability at 28.5 h, 10 µM worked out at 85.3%. Regarding `COc1ccc(-c2nn(-c3ccccc3)cc2C(=O)Nc2ccc(C(=O)O)cc2)cc1` [CBK296121], the viability at 28.5 h, 10 µM worked out at 106%. Turning to `Cc1ccc2c(c1)cc(C)c1nn(CC(=O)NC(C)(C)C)c(=O)n12` [CBK283875], the viability at 28.5 h, 10 µM is 87.5%. On to `Nc1nnc(Sc2nc3ccccc3nc2C(F)(F)F)s1` [CBK093795], for which the viability at 28.5 h, 10 µM was found to be 94.6%. For `CCN(CC)CCOC1CCc2ccccc2CC1` [CBK016730C], the viability at 28.5 h, 10 µM was found to be 96.7%.

The data set is the same for the next values; noted with them: human, hela cells, % viability, bulk resorufin, single well.
For the compound `CNC(=O)c1nn(Cc2ccc(Cl)cc2)c2ccccc12` [CBK088451], the viability at 28.5 h, 10 µM was found to be 87.6%. The same measure, in the same setting: the result for `CCOc1cc(C=C2C(=O)NC(=O)NC2=O)ccc1OS(=O)(=O)c1ccc([N+](=O)[O-])cc1` [CBK263614] reads 82.9%; that for `c1cc(-c2ccc3c(c2)COC2(CCNCC2)O3)c2cc[nH]c2c1` [CBK093812], 108%.
